Measurements published in PMC5048394, “Development and substrate specificity screening of an in vivo biosensor for the detection of biomass derived aromatic chemical building blocks” (Chemical Communications (Cambridge, England), 2016).
Read-outs that look alike come from different tables or passages of the source.

Legend:
[1] = test system: ferA knock-out (AKO) PLC and PferB systems; test: FerA knock-out (AKO) system FA induction assay; format: cell-based; settings: ferA knock-out (AKO) strains, E. coli BL21
Text: (§1) The sequences containing the PLC, PPC and PferB promoters, a RBS, and a Hexa-Histidine tag, flanked by SphI/NdeI were synthetized (GeneART, ThermoFisher). The sequences were enzyme restricted with SphI/NdeI and cloned in pET44eGFP,2 upstream to the eGFP gene, replacing the T7 promoter region generating respectively, the pET44PLCeGFP, pET44PPCeGFP and pET44PferBeGFP vectors.
(§2) The FerCA DNA sequence containing the ferA and ferC genes, individually flanked by a PLacI promoter and an rrn_B1 terminator, was synthetized by GeneARTTM (ThermoFisher).
The construct was cloned in a p15 plasmid flanked by NaeI/KasI restriction sites generating the p15FerCA vector. The ferA gene was removed by restriction digestion of two XbaI flanking sites. The remaining backbone with ferC was re-circularized to originate the p15FerC vector, and the obtained plasmid was sequenced to confirm identity.
(§3) Biosensors Performance and Screening Methods
Reporter controls and the biosensor systems PLC, PPC and PferB were respectively generated by transformation of pET44PLCeGFP, pET44PPCeGFP and pET44PFerBeGFP vectors alone or with p15FerCA in BL21 and DH10B chemically competent E. coli cells. […] Expression output was analyzed by monitoring the fluorescence normalised to cell density (RFU/OD) in a multimode plate reader. […]

[2] = test system: PPC biosensor; test: PPC biosensor eGFP expression (RFU/OD600) in E. coli BL21; format: cell-based
Method: (§4) Cells were centrifuged, washed and re-suspended with PBS buffer. The expression output was then analyzed by monitoring the fluorescence normalised to cell density (RFU/OD600) in a multimode plate reader (Methods, ESI ^†).
as §1, §2
(§5) The construct was cloned in a p15 plasmid flanked by NaeI/KasI restriction sites generating […]
(§6) the p15FerCA vector. […]
as §3
(§7) Reporter controls and the biosensor systems PLC, PPC and PferB were respectively generated by transformation of pET44PLCeGFP, pET44PPCeGFP and pET44PFerBeGFP vectors alone or with p15FerCA in BL21 and DH10B chemically competent E. coli cells. A single colony of each system was grown in LB media supplemented with antibiotics at 37 °C with shaking at 180rpm for 16 hours. Cultures were diluted (1:100) in fresh LB media with appropriate antibiotics, re-incubated at 37 °C with shaking until OD ~0.6 and transferred (450 μL) to multi- […]
(§8) μM and 1000 μM. Induction plates were incubated at 37 °C, with shaking at 1000 RPM (Stuart microtitre plate shaker incubator) for 3 hours. Cells were harvested by centrifugation, washed twice and re-suspended with PBS buffer. Expression output was analyzed by monitoring the fluorescence normalised to cell density (RFU/OD) in a multimode plate reader. […]
(§9) Data Processing and Curve Fitting
(§10) Biosensor signal output (eGFP expression) was measured as Relative Fluorescence Units (RFU) and normalised to cell density (OD600). The background auto-fluorescence of E. coli was subtracted from RFU/OD and was normalised (%) to the pLC biosensor response curve to ferulic acid for each experiment. The normalised data was plotted and fitted with a dose-response curve using the Levenberg Marquardt logistic growth/sigmoidal algorithm, using the Origin 2015 (OriginLab, Northampton MA USA) program. The biomass screening data was […]

[3] = test system: PferB biosensor; test: PferB biosensor eGFP expression in E. coli K strain (DH10B, Top10F'); format: cell-based
Method: as §4, §1, §2, §5, §6, §3, §7, §8, §9, §10

[4] = test system: PPC biosensor; test: PPC biosensor eGFP expression in E. coli K strain (DH10B, Top10F'); format: cell-based
Method: as §4, §1, §2, §5, §6, §3, §7, §8, §9, §10

[5] = test system: PferB biosensor; test: PferB biosensor eGFP expression (RFU/OD600) in E. coli BL21; format: cell-based
Method: as §4, §1, §2, §5, §6, §3, §7, §8, §9, §10

[6] = test system: PLC biosensor; test: microbe, parasite or virus in culture; format: cell-based, E. coli BL21; settings: for Emax: BL21, read-out: Induction; for Induction: E. coli BL21, 0.32–1000 μM
Method: as §4, §1, §2, §5, §6, §3, §7, §8
Compounds for screening were selected using cinnamic acid as a reference structure. The 58 selected compounds were tested with the PLC biosensor in E. coli BL21 cells. The substrate screening assays were performed using concentrations ranging from 0.32 μM to 1000 μM, as described for Ferulic acid. […]
as §9, §10

[7] = test system: PLC biosensor; test: PLC biosensor eGFP expression in E. coli K strain (DH10B, Top10F'); format: cell-based
Method: as §4, §1, §2, §5, §6, §3, §7, §8, §9, §10

[8] = ferulic acid dose response, PPC biosensor, E. coli BL21
[9] = ferulic acid dose response, PferB biosensor, Top10F' (DH10B)
[10] = ferulic acid dose response, PPC biosensor, Top10F' (DH10B)
[11] = ferulic acid dose response, PferB biosensor, E. coli BL21
[12] = Escherichia coli, BL21, ferulic acid dose response, PLC biosensor, E. coli BL21
[13] = Escherichia coli, BL21, read-out: Signal range (max/min), substrate screening, PLC biosensor, E. coli BL21
[14] = Escherichia coli, BL21, substrate screening, PLC biosensor, E. coli BL21
[15] = ferulic acid, PLC biosensor, E. coli BL21, text
[16] = substrate screening, PLC biosensor
[17] = substrate screening, PLC biosensor, E. coli BL21, text
[18] = PLC biosensor, E. coli K strain (DH10B)
[19] = ferulic acid dose response, PLC biosensor, Top10F' (DH10B)
[20] = substrate screening, PLC biosensor, E. coli BL21

COc1cc(/C=C/C(=O)O)ccc1O [compound 1, trans-Ferulic acid]
De-repression phenotype upon addition to growth media [1]: lacked the de-repression phenotype | EC50 ([2]; Escherichia coli, BL21): 11.2 ± 1.1 µM | EC90 ([2]; Escherichia coli, BL21): 38 µM | Concentration for complete de-repression [2, 8]: ≥ 40 µM | EC10 [2, 8]: 3.3 µM | Ebasal (fitting curve) [2, 8]: 4.2 RFU/OD | Emax (fitting curve) [2, 8]: 46.6 RFU/OD | Sensing range (EC90/EC10) [2, 8]: 11.5 | Signal range (max/min) [2, 8]: 10.4 | p (fitting curve) [2, 8]: 1.8 | EC50 ([3]; Escherichia coli): 79.6 µM | EC90 ([3]; Escherichia coli): 276 µM | De-repression ([3]; PferB biosensor, E. coli K strain (DH10B)): complete de-repression | EC10 [3, 9]: 22.9 µM | Ebasal (fitting curve) [3, 9]: 4.3 RFU/OD | Emax (fitting curve) [3, 9]: 20.5 RFU/OD | Sensing range (EC90/EC10) [3, 9]: 12.0 | Signal range (max/min) [3, 9]: 4.7 | p (fitting curve) [3, 9]: 1.8 | EC50 ([4]; Escherichia coli): 10.4 µM | EC90 ([4]; Escherichia coli): 33.3 µM | De-repression ([4]; PPC biosensor, E. coli K strain (DH10B)): complete de-repression | EC10 [4, 10]: 3.3 µM | Ebasal (fitting curve) [4, 10]: 4.7 RFU/OD | Emax (fitting curve) [4, 10]: 44.7 RFU/OD | Sensing range (EC90/EC10) [4, 10]: 10.2 | Signal range (max/min) [4, 10]: 12.4 | p (fitting curve) [4, 10]: 1.9 | EC50 ([5]; Escherichia coli, BL21): 60.5 ± 2.3 µM | EC90 ([5]; Escherichia coli, BL21): 191 µM | EC10 [5, 11]: 19.2 µM | Ebasal (fitting curve) [5, 11]: 3.7 RFU/OD | Emax (fitting curve) [5, 11]: 17.0 RFU/OD | Sensing range (EC90/EC10) [5, 11]: 9.9 | Signal range (max/min) [5, 11]: 5.0 | p (fitting curve) [5, 11]: 1.9 | De-repression ([5]; ferulic acid, PferB biosensor, E. coli BL21): effectively de-repressed | EC10 [6, 12]: 5.6 µM | EC50 [6, 12]: 20.9 ± 4.2 µM | EC90 [6, 12]: 77.4 µM | Emax ([6]; Escherichia coli): > 70% | maximal fold induction ([6]; Escherichia coli, BL21, read-out: Signal range (max/min), ferulic acid dose response, PLC biosensor, E. coli BL21): 22.8 | maximal fold induction [6, 13]: 26.2 | EC10 [6, 14]: 3.9 µM | EC50 [6, 14]: 15.3 ± 0.9 µM | EC90 [6, 14]: 59.5 µM | Saturation concentration ([6]; ferulic acid dose response, PLC biosensor, E. coli BL21): ≥ 100 µM | De-repression (incomplete), % of the PLC reporter ([6]; ferulic acid, PLC biosensor, E. coli BL21): ~85% | Sensing range [6, 15]: 13 fold | Signal range [6, 15]: ~23 fold | Induction [6, 16]: H (high output signals, and hence good efficacy (>70%)) | Signal read-out range [6, 17]: > 25 fold | EC50 ([7]; Escherichia coli): 22.8 ± 5.2 µM | EC90 ([7]; Escherichia coli): 83 µM | De-repression [7, 18]: incomplete de-repression | Relative signal range [7, 18]: ~19 fold | Sensing range (EC90/EC10) [7, 18]: 13 fold | EC10 [7, 19]: 6.3 µM | Ebasal (fitting curve) [7, 19]: 6.1 RFU/OD | Emax (fitting curve) [7, 19]: 100.0 RFU/OD | Sensing range (EC90/EC10) [7, 19]: 13.3 | Signal range (max/min) [7, 19]: 19.2 | p (fitting curve) [7, 19]: 1.7

COc1cc(C=CC(=O)O)cc(OC)c1OC [compound 11, 3,4,5-Trimethoxycinnamic acid]
EC10 ([6]; Escherichia coli, BL21): 378 µM | Emax ([6]; Escherichia coli): < 40% | maximal fold induction [6, 13]: 6.7 | EC50 [6, 14]: > 2000 µM | EC90 [6, 14]: 14800 µM | Change in potency relative to sinapic acid (4) [6, 20]: 8 fold | EC50 [6, 20]: 2360 ± 265 µM | Induction [6, 16]: L (low signals (<40%)) | Output signal / efficacy ([6]; substrate screening, relative to the PLC biosensor response curve with ferulic acid): < 40%

COc1cc(/C=C/C(=O)O)cc(OC)c1O [compound 4, Sinapic acid]
EC10 ([6]; Escherichia coli, BL21): 19.8 µM | Emax ([6]; Escherichia coli): > 70% | maximal fold induction [6, 13]: 15.4 | EC50 [6, 14]: > 200 µM | EC90 [6, 14]: 4990 µM | EC50 [6, 20]: 314 ± 55.8 µM | Induction [6, 16]: H (high output signals, and hence good efficacy (>70%)) | Sensing range (predicted) [6, 17]: 225 fold
